How the values were obtained:
Assay in all cases: Test D controlled growth environment herbicide test, pre- and postemergence
Assay type in all cases: in vivo
[1] = system: chickweed (common chickweed, Stellaria media)
How it was run: (§1)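 Pre-emergence: seeds sown in silt loam soil were sprayed with compound in a non-phytotoxic solvent mix containing surfactant. Post-emergence: plants at 2 to 18 cm (1- to 4-leaf stage) in peat moss/vermiculite medium got the same formulation. Visual 0–100 rating versus controls after 14 to 21 d.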

[2] = system: barley, spring (spring barley, Hordeum vulgare)
How it was run: as §1

[3] = system: wheat, winter (winter wheat, Triticum aestivum)
How it was run: as §1

[4] = system: field violet (Viola arvensis)
How it was run: as §1

[5] = system: lambsquarters (Chenopodium album)
How it was run: as §1

[6] = system: wheat, spring (spring wheat, Triticum aestivum)
How it was run: as §1

[7] = system: field poppy (Papaver rhoeas)
How it was run: as §1

[8] = system: Russian thistle (Salsola kali)
How it was run: as §1

[9] = system: bluegrass (annual bluegrass, Poa annua)
How it was run: as §1

[10] = system: radish, wild (wild radish, Raphanus raphanistrum)
How it was run: as §1

[11] = system: canarygrass (Phalaris minor)
How it was run: as §1

[12] = system: barley, winter (winter barley, Hordeum vulgare)
How it was run: as §1

[13] = system: oat, wild (wild oat, Avena fatua)
How it was run: as §1

[14] = Postemergence, 31 g ai/ha, scale 0 to 100 (0 no effect, 100 complete control)
[15] = Postemergence, 125 g ai/ha, visual rating on scale 0 (no effect) to 100 (complete control), 14 to 21 d
[16] = Postemergence, 250 g ai/ha, scale 0 to 100 (0 no effect, 100 complete control)
[17] = Preemergence, 62 g ai/ha, scale 0 to 100 (0 no effect, 100 complete control)
[18] = Preemergence, 125 g ai/ha, scale 0 to 100 (0 no effect, 100 complete control)
[19] = Preemergence, 250 g ai/ha, scale 0 to 100, 0 no effect, 100 complete control
[20] = postemergence, 62 g ai/ha, scale 0 to 100, 0 no effect, 100 complete control

Cn1nc(Br)c(O)c(-c2cccc3ccccc23)c1=O [Compound 20]
98: Plant response rating, Russian Thistle [8, 16]
15: Plant response rating, Wheat, Winter [3, 15] | Plant response rating, Wheat, Winter [3, 18] | Plant response rating, Field Violet [4, 17] | Plant response rating, Field Violet [4, 20] | Plant response rating, Wheat, Spring [6, 15] | Plant response rating, Wheat, Spring [6, 17] | Plant response rating, Wheat, Spring [6, 20] | Plant response rating, Bluegrass [9, 17]
80: Plant response rating, Russian Thistle [8, 15] | Plant response rating, Canarygrass [11, 19]
10: Plant response rating, Wheat, Winter [3, 20] | Bluegrass plant response rating [9, 14] | Plant response rating (scale of 0 to 100), Bluegrass ([9]; Preemergence, 31 g ai/ha) | Canarygrass plant response rating [11, 14]
25: Plant response rating, Wheat, Winter [3, 16] | Plant response rating, Wheat, Winter [3, 19] | Plant response rating, Field Violet [4, 15] | Plant response rating, Field Violet [4, 18] | Plant response rating, Wheat, Spring [6, 18] | Plant response rating, Bluegrass [9, 18] | Plant response rating, Bluegrass [9, 20] | Plant response rating (scale of 0 to 100), Canarygrass ([11]; Preemergence, 31 g ai/ha) | Plant response rating, Oat, Wild [13, 20]
20: Plant response rating, Wheat, Spring [6, 16] | Oat, Wild plant response rating [13, 14]
70: Plant response rating (scale of 0 to 100), Field Poppy ([7]; Preemergence, 31 g ai/ha) | Plant response rating, Field Poppy [7, 17] | Russian Thistle plant response rating [8, 14] | Plant response rating, Russian Thistle [8, 19] | Plant response rating, Radish, Wild [10, 15] | Plant response rating, Canarygrass [11, 18]
45: Plant response rating, Field Violet [4, 16] | Plant response rating, Wheat, Spring [6, 19] | Plant response rating, Canarygrass [11, 15]
90: Chickweed plant response rating [1, 14] | Plant response rating, Lambsquarters [5, 15] | Plant response rating, Lambsquarters [5, 17]
60: Plant response rating, Field Poppy [7, 20] | Plant response rating, Oat, Wild [13, 15]
50: Radish, Wild plant response rating [10, 14] | Plant response rating, Radish, Wild [10, 18]
5: Field Violet plant response rating [4, 14]
40: Plant response rating, Russian Thistle [8, 18] | Plant response rating, Bluegrass [9, 16] | Plant response rating, Radish, Wild [10, 20]
55: Plant response rating, Canarygrass [11, 16]
75: Plant response rating, Field Violet [4, 19] | Plant response rating (scale of 0 to 100), Lambsquarters ([5]; Preemergence, 31 g ai/ha) | Plant response rating, Russian Thistle [8, 20] | Plant response rating, Oat, Wild [13, 16]
95: Plant response rating, Chickweed [1, 17] | Plant response rating, Chickweed [1, 18] | Plant response rating, Chickweed [1, 19] | Plant response rating, Lambsquarters [5, 16] | Plant response rating, Field Poppy [7, 18] | Plant response rating, Oat, Wild [13, 19]
35: Bluegrass plant response rating [9, 19] | Plant response rating, Canarygrass [11, 17] | Plant response rating (scale of 0 to 100), Oat, Wild ([13]; Preemergence, 31 g ai/ha)
85: Plant response rating (scale of 0 to 100), Chickweed ([1]; Preemergence, 31 g ai/ha) | Lambsquarters plant response rating [5, 14] | Plant response rating, Lambsquarters [5, 20] | Plant response rating, Oat, Wild [13, 18]
100: Plant response rating, Chickweed [1, 15] | Plant response rating, Chickweed [1, 16] | Plant response rating, Chickweed [1, 20] | Plant response rating, Lambsquarters [5, 18] | Plant response rating, Lambsquarters [5, 19] | Plant response rating, Field Poppy [7, 15] | Plant response rating, Field Poppy [7, 16] | Plant response rating, Field Poppy [7, 19]
0: Plant response rating, Barley, Spring [2, 14] | Plant response rating, Barley, Spring [2, 15] | Plant response rating, Barley, Spring [2, 16] | Plant response rating (scale of 0 to 100), Barley, Spring ([2]; Preemergence, 31 g ai/ha) | Plant response rating, Barley, Spring [2, 17] | Plant response rating, Barley, Spring [2, 18] | Barley, Spring plant response rating [2, 19] | Plant response rating, Barley, Spring [2, 20] | Wheat, Winter plant response rating [3, 14] | Plant response rating (scale of 0 to 100), Wheat, Winter ([3]; Preemergence, 31 g ai/ha) | Plant response rating, Wheat, Winter [3, 17] | Plant response rating (scale of 0 to 100), Field Violet ([4]; Preemergence, 31 g ai/ha) | Wheat, Spring plant response rating [6, 14] | Plant response rating (scale of 0 to 100), Wheat, Spring ([6]; Preemergence, 31 g ai/ha) | Plant response rating (scale of 0 to 100), Russian Thistle ([8]; Preemergence, 31 g ai/ha) | Plant response rating (scale of 0 to 100), Radish, Wild ([10]; Preemergence, 31 g ai/ha) | Plant response rating, Radish, Wild [10, 17] | Plant response rating, Barley, Winter [12, 14] | Plant response rating, Barley, Winter [12, 15] | Plant response rating, Barley, Winter [12, 16] | Plant response rating (scale of 0 to 100), Barley, Winter ([12]; Preemergence, 31 g ai/ha) | Plant response rating, Barley, Winter [12, 17] | Plant response rating, Barley, Winter [12, 18] | Barley, Winter plant response rating [12, 19] | Plant response rating, Barley, Winter [12, 20]
30: Field Poppy plant response rating [7, 14] | Plant response rating, Russian Thistle [8, 17] | Plant response rating, Bluegrass [9, 15] | Plant response rating, Canarygrass [11, 20]
65: Plant response rating, Radish, Wild [10, 16] | Plant response rating, Radish, Wild [10, 19] | Plant response rating, Oat, Wild [13, 17]

Cc1cc(C)c2ccccc2c1-c1c(O)c(C)nn(C)c1=O [Compound 21]
80: Lambsquarters plant response rating [5, 14] | Plant response rating, Russian Thistle [8, 15] | Canarygrass plant response rating [11, 14] | Plant response rating, Canarygrass [11, 20] | Oat, Wild plant response rating [13, 14]
40: Plant response rating, Wheat, Winter [3, 16] | Plant response rating, Wheat, Spring [6, 15] | Plant response rating, Barley, Winter [12, 16]
20: Wheat, Winter plant response rating [3, 14] | Wheat, Spring plant response rating [6, 14] | Bluegrass plant response rating [9, 14]
70: Russian Thistle plant response rating [8, 14]
75: Plant response rating, Russian Thistle [8, 20]
85: Plant response rating, Lambsquarters [5, 20] | Field Poppy plant response rating [7, 14] | Plant response rating, Russian Thistle [8, 16] | Plant response rating, Canarygrass [11, 15] | Plant response rating, Oat, Wild [13, 15] | Plant response rating, Oat, Wild [13, 20]
50: Plant response rating, Wheat, Spring [6, 16] | Plant response rating, Bluegrass [9, 16]
90: Chickweed plant response rating [1, 14] | Plant response rating, Lambsquarters [5, 15]
95: Field Violet plant response rating [4, 14] | Plant response rating, Field Violet [4, 20] | Plant response rating, Lambsquarters [5, 16] | Radish, Wild plant response rating [10, 14] | Plant response rating, Canarygrass [11, 16]
10: Plant response rating, Barley, Spring [2, 15] | Plant response rating, Barley, Winter [12, 20]
5: Plant response rating, Barley, Spring [2, 20]
25: Plant response rating, Wheat, Winter [3, 20]
35: Plant response rating, Wheat, Winter [3, 15] | Plant response rating, Bluegrass [9, 15]
100: Plant response rating, Chickweed [1, 15] | Plant response rating, Chickweed [1, 16] | Plant response rating, Chickweed [1, 20] | Plant response rating, Field Violet [4, 15] | Plant response rating, Field Violet [4, 16] | Plant response rating, Field Poppy [7, 15] | Plant response rating, Field Poppy [7, 16] | Plant response rating, Field Poppy [7, 20] | Plant response rating, Radish, Wild [10, 15] | Plant response rating, Radish, Wild [10, 16] | Plant response rating, Radish, Wild [10, 20] | Plant response rating, Oat, Wild [13, 16]
0: Plant response rating, Barley, Spring [2, 14] | Plant response rating, Barley, Winter [12, 14]
30: Plant response rating, Barley, Spring [2, 16] | Plant response rating, Wheat, Spring [6, 20] | Plant response rating, Bluegrass [9, 20] | Plant response rating, Barley, Winter [12, 15]
